Results on 1 compound are retold here after patent US12410178B2, “Small cationic ortho-5,15-di-heteroaryl-porphyrin derivatives and their applications in photoinactivation of microorganisms” (UNIVERSIDADE DE COIMBRA, priority 2019, dated 2025).

Some results are limits rather than exact numbers.

One series can be described thus: Solubility in water. It counts as physicochemical.
The nature of series [1]: Photobleaching / photodecomposition experiments. It counts as physicochemical. The method, then:
Photobleaching experiments: Photodecomposition experiments were made dissolving the photosensitizers in water with 9% dimethylsulfoxide. A volume of 3 mL was placed in a cuvette and irradiated ensuring that all the light hits the solution. The porphyrins were irradiated using a LED light with emission at 415 nm and an effective output power of 0.27 mW. Photodecomposition quantum yield (Φpd) is defined as the ratio between the rate of disappearance of photosensitizer molecules vd and the rate of absorption of photons vp.
The intensity of its longest wavelength absorption band at 622 nm decreased by less than ΔA=0.001 after 15,000 second of illumination corresponding to an effective absorption of ca. 4 J. This places an upper limit of 0.001 to the photodecomposition quantum yield.

Take `Cn1cc[n+](C)c1C1=C2C=CC3=[N+]2[Zn@]24[n]5c(ccc51)C=C1C=CC(=[N+]12)C(c1n(C)cc[n+]1C)=c1ccc([n]14)=C3` [Formula (IIa), 5,15-bis(1,3-dimethylimidazol-2-yl)porphyrinate zinc (II) diiodide]: the solubility in water entry in the series “Solubility in water” was “soluble in water”. The compound also registered a photodecomposition quantum yield in series [1] (LED 415 nm, water with 9% dimethylsulfoxide) not above 0.001. Further, the “decrease ΔA of longest wavelength absorption band at 622 nm” value in series [1] (after 15,000 second of illumination, effective absorption ca. 4 J) is on record as less than 0.001.
